Test results published in patent US4806532A, “Inhibition of epithelial phosphate transport” (Mayo Foundation for Medical Education and Research, priority 1985, dated 1989).
Where a name gives a salt, the structure may show the parent alone.

Experiments:
Na-Pi cotransporter = biological target: T1, Na-Pi cotransporter (Rattus norvegicus, UniProt Q9JJ09); test: Na+-gradient-dependent 32Pi uptake by intestinal BBMV; type: biochemical; conditions: 1 mM; for effect on initial 32P uptake by intestinal BBMV (in words): FIG. 4, Table 7; for 32Pi-phosphate uptake 30 sec: initial phase, rat small intestine BBMV, control 75 ± 3
T1 construct: The intestinal BBMV fractions were prepared from mucosa of rat small intestine; from tissue; host or cells: rat small intestine mucosa, brush border membrane vesicles
T1 sequence (Q9JJ09 1-695): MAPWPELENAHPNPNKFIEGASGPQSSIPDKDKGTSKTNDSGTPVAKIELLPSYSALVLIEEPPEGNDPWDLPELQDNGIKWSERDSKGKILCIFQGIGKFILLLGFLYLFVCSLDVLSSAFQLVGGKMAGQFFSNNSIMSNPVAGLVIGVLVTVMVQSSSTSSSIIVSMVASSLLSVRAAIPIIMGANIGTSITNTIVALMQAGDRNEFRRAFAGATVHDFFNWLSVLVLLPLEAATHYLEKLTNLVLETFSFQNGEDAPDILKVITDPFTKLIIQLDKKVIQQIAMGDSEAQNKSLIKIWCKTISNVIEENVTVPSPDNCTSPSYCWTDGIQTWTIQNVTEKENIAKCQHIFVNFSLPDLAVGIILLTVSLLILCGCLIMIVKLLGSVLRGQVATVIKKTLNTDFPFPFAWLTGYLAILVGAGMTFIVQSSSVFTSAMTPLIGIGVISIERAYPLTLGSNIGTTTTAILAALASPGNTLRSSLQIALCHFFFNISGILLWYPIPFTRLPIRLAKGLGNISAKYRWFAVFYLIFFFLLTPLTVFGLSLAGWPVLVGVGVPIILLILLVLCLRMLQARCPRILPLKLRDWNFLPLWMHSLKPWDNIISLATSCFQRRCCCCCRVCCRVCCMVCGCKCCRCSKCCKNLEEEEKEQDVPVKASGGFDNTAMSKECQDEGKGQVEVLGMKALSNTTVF
Protocol: The intestinal BBMV fractions were prepared from mucosa of rat small intestine of rats using the modified magnesium- precipitation method as described by B. Steiger and H. Murer [Eur. J. Biochem., 135, 95 (1983)]. This intestinal BBMV fraction is analogous to the BBMV fraction isolated from kidney. The uptake of ^32 Pi in the presence of Na^+ -gradient [Nao^+ >Nai^+ ] was determined by a rapid filtration technique similar to that employed in the transport measurements on renal BBMV. The Na^+ -gradient [Nao^+ >Nai^+ ]-dependent Pi uptake in the initial phase was measured after 30 sec. The ^32 Pi uptake at equilibrium was measured at 180 min.

[1] = tested on: ^14 C--succinate uptake by BBMV from rat small intestine; test: 14C-succinate uptake by intestinal BBMV; type: biochemical; conditions: 1 mM; for 14C-succinate uptake 120 min: control 78 ± 3; for 14C-succinate uptake 15 sec: control 118 ± 7
[2] = tested on: intestinal BBM alkaline phosphatase; test: Effect on intestinal BBM alkaline phosphatase (data not shown); type: biochemical, rat

Row | SMILES | effect on initial 32P uptake by intestinal BBMV (in words) (Na-Pi cotransporter) | 32Pi-phosphate uptake 30 sec (Na-Pi cotransporter) [pmoles/mg protein] | 14C-succinate uptake 120 min [1] [pmol/mg protein] | 14C-succinate uptake 15 sec [1] [pmol/mg protein] | inhibition of intestinal BBM alkaline phosphatase [2]
1 | O=C(O)CP(=O)(O)O [PAA, phosphonoacetic acid] | markedly inhibited | 51 ± 0.3 | 89 ± 3 | 127 ± 2 | neither TPFA or PAA inhibited
2 | O=C(O)P(=O)(O)O [TPFA, Phosphonoformic acid, trisodium salt hexahydrate] | markedly inhibited | 44 ± 2 | 81 ± 1 | 125 ± 3 | neither TPFA or PAA inhibited
